Experimental data: publication PMC11293026, “Light-activated azobenzene peptide inhibitor of the PD-1/PD-L1 interaction” (Chemical Communications (Cambridge, England), 2024)
Entries after “also recorded” stand apart in the source; their conditions may differ. *1 amine or outer side, *2 acyl side, *3 side chain or, on linkers, in order; H or OH if unused. Where a SMILES comes first, the peptide text is derived from it. [ ]: non-standard residue; d: D form. X1 = O=C(Cc1cccc(/N=N/c2cccc(CN[*:1])c2)c1)[*:2]

How the values were obtained:
PD-1/PD-L1 = conditions: read-out: IC50, PD-1/PD-L1 inhibition of BMS-1; cited from earlier work
Text: Photo-switchable peptides that have the potential to be switched “on” and “off” through structural changes, present an opportunity for externally controlled immune checkpoint inhibitors.

[1] = test system: PD-1/PD-L1 interaction between Jurkat-Lucia TCR-hPD-1 and Raji-APC PD-L1 cells; experiment: PD-1/PD-L1 immune checkpoint blockade cell-based assay (InvivoGen), luciferase read-out; parameters: species or system human; conditions: Jurkat/Raji co-culture, 6 h at 37 °C, luminescence; 1 tested as cis isomer (irradiated at 365 nm); triplicate; brackets = 95% CI
Protocol: Fig. 3 (A) HTRF assay with PD-1/PD-L1 and peptides CLP003, cis1 And trans1. (B) PD-1/PD-L1 immune checkpoint blockade assay (Invivogen). Increased luminescence implies PD-1/PD-L1 inhibition between modified Jurkat and Raji cells. Errors are SEM, performed in triplicate. Representative examples of n = 3.
There was concern that during the cellular assay incubation at 37 °C may result in the azobenzene modified peptide relaxing back to the trans isomer. To determine whether 1 was thermally stable to continue with cellular assays, 1 was incubated at 37 °C for 8 h after irradiation at 365 nm for 15 minutes in buffer. […] To explore the activity of 1 in a cellular context, an immune checkpoint blockade assay was performed. The cell-based assay (InvivoGen) consists of Jurkat T cells that are engineered to express luciferase via T cell receptor (TCR) signalling and Raji cells engineered to express PD-L1 on the cell surface. If PD-L1 is bound to PD-1, the luciferase expression is inhibited. […] As such, luciferase activity directly correlates to the PD-1/PD-L1 interaction, measured by luminescence following luciferin addition. […]
The assay was performed following the manufacturer’s protocol. […] The plate was read using a CLARIOstar (BMG Labtech) microplate reader and used following manufacturer’s protocols, reading luminescence at a 4 s start time and 0.1 s […]

PD-L1 = conditions: cited from earlier work
Text: To determine where to insert AMPP, alanine scanning mutagenesis highlighted which amino acids were essential for inhibition using a homogenous time-resolved fluorescence (HTRF) binding assay (Cisbio).[38] From this Tyr5 and Trp7 were highlighted as being […] for inhibition (Fig. 2A). […] Photo-switchable peptides that have the potential to be switched “on” and “off” through structural changes, present an opportunity for externally controlled immune checkpoint inhibitors.

PD-1/PD-L1 interaction = target: T1, PD-1/PD-L1 interaction (Homo sapiens, UniProt Q9NZQ7); experiment: PD-1/PD-L1 HTRF binding assay (Cisbio); conditions: for IC50: HTRF, 1 h at room temperature, three parameter logistic fit, brackets = 95% confidence interval, read-out: IC50, inhibition of PD-1/PD-L1 (HTRF); for IC50 / Alanine scan of CLP003, inhibition of PD-1/PD-L1 (HTRF) at single concentration: triplicate; for Alanine scan of CLP003, inhibition of PD-1/PD-L1 (HTRF) at single concentration: peptides screened at 1 mM in europium detection buffer, representative of n = 3
T1 construct: purchased Cisbio
Protocol: All peptides were screened at 1 mM in europium detection buffer, BMS-1 (10 μM) was the control, the positive control contained tagged PD-L1 and tagged PD-1, the negative control contained tagged PD-L1 only. Errors are SEM, performed in triplicate. Representative example of n = 3. (B) Example azobenzene modified peptide, peptide 1, predicted to be unstructured in the trans isomer and a turn motif in the cis isomer. Structures predicted with RFAllAtom and Maestro. The arrows between residues in the cis conformation implies the N to C direction. (C) The analytical HPLC traces (254 nm) showing pre-irradiated (red), irradiated at 365 nm for 20 min (blue) and a co-injection of the two samples (green). (D) UV-Vis spectra of 1. […] Post irradiation, and after up to 6 hours in the dark characteristic maxima for the cis isomer at 450 nm is observed. (E) Absorbance at 330 nm over 10 cycles of photoisomerization of peptide 1 after 20 min irradiation at 365 nm, and then isomerisation for 20 min exposed to white light. […]
6. PD-1/PD-L1 HTRF binding assay
This assay was purchased from CisBio and was performed following the manufacturer’s protocol. Tag1-PD-L1 and Tag2-PD-1 was diluted 40-fold from the stock solution with PPI-Europium detection buffer. Anti-Tag1 Eu Cryptate reagent and Anti-Tag2 XL665 antibody was diluted 50-fold from the stock solution with PPI-Europium detection buffer. HTRF 96-well low volume white plate was used. The samples were made to the desired concentration and 2 µL was pipetted into the well. The 4 µL of Tag-1-PD-L1 solution (25 nM) was added, followed by 4 µL of Tag2-PD-1 solution (250 nM). 1X Anti-Tag1 Eu Cryptate reagent solution (25 nM|) and 1X Anti-Tag2 XL665 antibody solution (250 nM) were pre-mixed prior to dispensing 10 µL into the well, for a total volume of 20 µL. The plate was sealed and incubated for 1 hour at room temperature. Samples were analysed in triplicate. Once incubated, the plate was read using a CLARIOstar (BMG Labtech) microplate reader following manufacturer’s protocols for time resolved fluorescence (excitation filter EX-TR, emission filters 620 (10) nm, 665 (10) nm, dichoric mirror LP-TR, integration delay (lag time) 60 µs, integration time 400 µs, number of flashes 200, gain for white plate 2500).
The emission ratio was calculated for each well was calculated with the following equation:
Ratio = 665 nm Intensity […]
The “specific signal” (ΔR) is obtained by subtracting the background from the signal of each […]
∆R = RatioSample ‒ Ratiobackground […]
interaction. The data was fit to a three parameter logistic regression model with resulting R2 […]
On the day of analysis Raji-APC-nPD-L1 cell suspension ~100,000
(90 µL) was added to a 96 well plate containing test sample (1.8 µL), followed by Jurkat-Lucia TCR-hPD-1 cell suspension of ~200,000 (90 µL). The plate was incubated at 37 °C in a CO2 incubator for 6 hours. The co-cultured supernatant was transferred to 96-well clear bottomed […]
white plate. […]

[2] = Thermal stability of 1 at 37 °C, analytical HPLC; type: physicochemical; conditions: after irradiation at 365 nm for 15 min, 1 mg/mL in IMDM with 10% FBS, Pen-Strep and Normocin, analytical HPLC every hour
Protocol: There was concern that during the cellular assay incubation at 37 °C may result in the azobenzene modified peptide relaxing back to the trans isomer. To determine whether 1 was thermally stable to continue with cellular assays, 1 was incubated at 37 °C for 8 h after irradiation at 365 nm for 15 minutes in buffer. […] To explore the activity of 1 in a cellular context, an immune checkpoint blockade assay was performed. The cell-based assay (InvivoGen) consists of Jurkat T cells that are engineered to express luciferase via T cell receptor (TCR) signalling and Raji cells engineered to express PD-L1 on the cell surface. If PD-L1 is bound to PD-1, the luciferase expression is inhibited. If the PD-1/PD-L1 interaction is inhibited, TCR signalling causes luciferase expression. As such, luciferase activity directly correlates to the PD-1/PD-L1 interaction, measured by luminescence following luciferin addition. […]
Figure 6 a) The analytical HPLC traces of 6 reading at 214 nm top: after irradiation at 365 nm for 20 minutes showing predominantly the cis isomer (74:26) bottom: after being exposed for 20 minutes of ambient light showing predominantly the […]
This assay was purchased from CisBio and was performed following the manufacturer’s protocol. […] Samples were analysed in triplicate. […]
The emission ratio was calculated for each well was calculated with the following equation: […]

T1 sequence (Q9NZQ7 19-238 limits assumed): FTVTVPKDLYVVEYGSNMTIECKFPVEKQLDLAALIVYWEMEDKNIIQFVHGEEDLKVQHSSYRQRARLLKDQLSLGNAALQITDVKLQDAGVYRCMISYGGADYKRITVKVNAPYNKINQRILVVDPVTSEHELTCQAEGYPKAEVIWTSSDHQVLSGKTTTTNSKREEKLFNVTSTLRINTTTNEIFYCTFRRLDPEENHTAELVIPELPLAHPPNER

Row | Structure (SMILES) | EC50 [1] [nM] | IC50 (PD-1/PD-L1 interaction) [nM] | Alanine scan of CLP003, inhibition of PD-1/PD-L1 (HTRF) at single concentration (PD-1/PD-L1 interaction) | further results
1 | COc1cc(OCc2cccc(-c3ccccc3)c2C)cc(OC)c1CN1CCCC[C@H]1C(=O)O [BMS-1, reference compound] | 3990 | – | – | IC50 (PD-1/PD-L1): 76 nM
2 | CC(=O)N[C@@H](Cc1c[nH]c2ccccc12)C(=O)N[C@@H](Cc1c[nH]cn1)C(=O)N[C@@H](Cc1ccccc1)C(=O)N[C@@H](CO)C(=O)N[C@@H](Cc1ccc(O)cc1)C(=O)N[C@@H](CC(N)=O)C(=O)N[C@@H](Cc1c[nH]c2ccccc12)C(=O)N[C@@H](CCCNC(=N)N)C(=O)N[C@@H](Cc1c[nH]c2ccccc12)C(=O)N[C@@H](CC(C)C)C(=O)N1CCC[C@H]1C(=O)N1CCC[C@H]1C(N)=O [CLP003, reference compound] (Ac-WHFSYNWRWLPP-NH2) | – | 4680 | – | Kd (PD-L1): 117 ± 80 nM
3 | CC(=O)N[C@@H](Cc1c[nH]c2ccccc12)C(=O)N[C@@H](Cc1c[nH]cn1)C(=O)N[C@@H](Cc1ccccc1)C(=O)N[C@@H](CO)C(=O)N[C@@H](Cc1ccc(O)cc1)C(=O)N[C@@H](CC(N)=O)C(=O)N[C@@H](C)C(=O)N[C@@H](CCCNC(=N)N)C(=O)N[C@@H](Cc1c[nH]c2ccccc12)C(=O)N[C@@H](CC(C)C)C(=O)N1CCC[C@H]1C(=O)N1CCC[C@H]1C(N)=O [W7A] (Ac-WHFSYNARWLPP-NH2) | – | 25 | inhibiting PD-1/PD-L1 | –
4 | CC(=O)N[C@@H](Cc1c[nH]c2ccccc12)C(=O)N[C@@H](Cc1c[nH]cn1)C(=O)N[C@@H](Cc1ccccc1)C(=O)N[C@@H](CO)C(=O)N[C@@H](C)C(=O)N[C@@H](CC(N)=O)C(=O)N[C@@H](Cc1c[nH]c2ccccc12)C(=O)N[C@@H](CCCNC(=N)N)C(=O)N[C@@H](Cc1c[nH]c2ccccc12)C(=O)N[C@@H](CC(C)C)C(=O)N1CCC[C@H]1C(=O)N1CCC[C@H]1C(N)=O [Y5A] (Ac-WHFSANWRWLPP-NH2) | – | 52 | inhibiting PD-1/PD-L1 | –
5 | CC(=O)N[C@@H](Cc1c[nH]c2ccccc12)C(=O)N[C@@H](Cc1c[nH]cn1)C(=O)N[C@@H](Cc1ccccc1)C(=O)N[C@@H](CO)C(=O)N[C@@H](Cc1ccc(O)cc1)C(=O)N[C@@H](CC(N)=O)C(=O)NCc1cccc(/N=N/c2cccc(CC(=O)N[C@@H](CCCNC(=N)N)C(=O)N[C@@H](Cc3c[nH]c4ccccc34)C(=O)N[C@@H](CC(C)C)C(=O)N3CCC[C@H]3C(=O)N3CCC[C@H]3C(N)=O)c2)c1 [compound 1] (Ac-WHFSYN[X1]RWLPP-NH2) | 5580 | – | – | Thermal stability at 37 °C over 8 h (degradation / isomer state) [2]: no degradation while remaining predominantly the cis isomer; also recorded: no observable change; Inhibition of PD-1/PD-L1 (HTRF), trans isomer (PD-1/PD-L1 interaction; sample left in the dark (trans isomer), at up to 100 μM, detection buffer with 5% DMSO): no appreciable inhibition
